{"source": "patent US11833137B2", "about": "“Substituted chromenones, IRE1 inhibitors, and methods of using same” (The Wistar Institute, priority 2018, dated 2023)", "key": {"[1]": {"test": "Fluorescence stability (decomposition) in aqueous solution", "type": "physicochemical", "settings": "37° C.", "experimental": "(FIG. 2B) 5TGM1 cells were treated with DMSO or with 20 μM 2, 4, 3, or 7 dissolved in DMSO for 3 days and subjected to XTT assays. Percentages of growth were determined by comparing treated groups with control groups (DMSO). Each data point derived from four independent groups receiving exactly the same treatment was plotted as mean±SD. Results are representative of three independent experiments. […] The values of I/I0 were plotted as a function of time and shown in the inset. I0 was the initial fluorescence intensity of 4 at 0 h. […] The values of I/I0 were plotted as a function of time and shown in the inset. I0 was the initial fluorescence intensity of 5 at 0 h. […] (FIG. 2G) The decomposition rates of 7 and 8 were plotted as a function of time in RPMI media incubated at 37° C. Aliquots were analyzed by HPLC and the peaks integrated.\nFIGS. 5A-5J illustrate the finding that installation of a boronate cage cleavable by H2O2 stabilizes the 1,3-dioxane acetal protective group of D-F07 to allow for temporal inhibition of XBP-1s upon contact with H2O2. (FIG. 5A) A scheme showing that installation of a boronate-caged group stabilizes the 1,3-dioxane acetal protective group to allow for H2O2-mediated release of intact D-F07. (FIG. 5B) The fluorescence of BC-D-F07a (2.5 μM in the DMSO/PBS solution (v/v=1:99), Ex=360 nm) increases upon incubation with 0 to 200 μM hydrogen peroxide at room temperature for 1 h. (FIG. 5C) The fluorescence of BC-D-F07b (2.5 μM in the DMSO/PBS solution (v/v=1:99), Ex=360 nm) increases upon incubation with 0 to 2 mM hydrogen peroxide at 37° C. for 1 h. […] I0 was the initial fluorescence intensity of D-F07, BC-D-F07a or BC-D-F07b at 0 h. (FIG. 5E) The levels of hydrogen peroxide produced by 5TGM1, 72-h LPS-stimulated primary CLL, MEC2, and WaC3 cells were measured by Amplex Red with or without the addition of extracellular catalase (500 U/mL). (FIG. 5F) 5TGM1 cells were treated with BC-D-F07a at increasing concentrations for 24 h, lysed, and analyzed for the expression of indicated proteins by immunoblots. (FIG. 5G) CD5+ CLL cells purified from spleens of Eμ-TCL1 mice were stimulated with […], subsequently treated with BC-D-F07a at 20 μM for 16 h, and then incubated with hydrogen peroxide at indicated concentrations for another 4 h. Cells were lysed and analyzed for the expression of indicated proteins by immunoblots. […] Cells were lysed and analyzed for the expression of indicated proteins by immunoblots. […] Percentages of growth were determined by comparing treated groups with control groups (DMSO). […]\nUV-vis and fluorescence spectra were carried out on a BioTek SYNERGY™ NEO2 instrument (96 well plate)."}, "[2]": {"tested_on": "XBP-1s expression, 5TGM1 cells", "test": "XBP-1s immunoblot in 5TGM1 multiple myeloma cells", "type": "cell-based, mouse", "settings": "for inhibition of XBP-1s expression, short term: 2.5 μM for 1, 2 or 4 h; for suppression of XBP-1s expression, long term: 10 μM for a course of 3 days", "experimental": "5TGM1 mouse multiple myeloma cells, primary mouse B cells, primary mouse Eμ-TCL1 CLL cells, and human CLL cell lines (MEC2 and WaC3) were cultured at 37° C. in a 5% CO2 incubator using RPMI 1640 media (Gibco) supplemented with 10% heat-inactivated FBS, 2 mM L-glutamine, 100 U/mL penicillin G sodium, 1 mM sodium pyruvate, 0.1 mM non-essential amino acids, 100 μg/mL streptomycin sulfate and 0.1 mM β-mercaptoethanol (β-ME).\nCells were lysed using RIPA buffer (10 mM Tris-HCl, pH 7.4, 150 mM NaCl, 1% NP-40, 0.5% sodium deoxycholate, 0.1% SDS, and 1 mM EDTA) supplemented with protease inhibitors (Roche). Protein concentrations were determined by BCA assays (Pierce).\nSamples were boiled in SDS-PAGE sample buffer (62.5 mM Tris-HCl, pH 6.8, 2% SDS, 10% glycerol, 0.1% bromophenol blue) with β-ME and analyzed by SDS-PAGE. Proteins were transferred to nitrocellulose membranes, blocked in 5% nonfat milk (wt/vol in PBS), and immunoblotted with indicated primary antibodies and appropriate horseradish peroxidase-conjugated secondary antibodies. Immunoblots were developed using Western Lighting Chemiluminescence Reagent (PerkinElmer).\nTo develop inhibitors with improved potency to target the IRE1/XBP-1 pathway, tricyclic chromenone-based IRE1 RNase inhibitors with different amine group (R^1) were synthesized and compared: allyloxycarbonyl (alloc) in B-H09 (1), —H in C-B06 (2), and —CH3 in C-D06 (3) (FIG. 1A). 5TGM1 multiple myeloma cells were chosen to evaluate inhibitory effects of these inhibitors because they have constitutively activated IRE1/XBP-1 pathways."}, "[3]": {"tested_on": "5TGM1 cells", "test": "Cell proliferation XTT assay, 5TGM1", "type": "cell-based, mouse", "experimental": "5TGM1 cells were suspended in phenol red-free RPMI media, seeded in 96-well cell culture plates, and treated with indicated IRE1 inhibitors (20 μM, unless indicated otherwise). At indicated time points, cells were spun down and cell proliferation was assessed by XTT assays (Roche) according to the manufacturer's instructions. Briefly, 50 μl XTT labeling reagent, 1 μl electron-coupling reagent, and 100 μl phenol red-free RPMI media were combined and applied to each well of the 96-well plates. Cells were incubated for 4 h in a CO2 incubator to allow for the yellow tetrazolium salt XTT to be cleaved by mitochondrial dehydrogenases of metabolically active cells to form the orange formazan dye, which can be quantified at 492 nm using a BioTek SYNERGY™ NEO2 Multimode Reader."}, "[4]": {"tested_on": "WaC3 cells", "test": "Cell proliferation XTT assay, WaC3", "type": "cell-based, human", "settings": "20 μM for a course of 3 days"}, "[5]": {"tested_on": "MEC2 cells", "test": "Cell proliferation XTT assay, MEC2", "type": "cell-based, human", "settings": "indicated concentrations, 24 h"}, "[6]": {"test": "Compound degradation HPLC assay", "type": "physicochemical", "settings": "37° C.", "experimental": "A 20 mM DMSO stock solution of analyte compounds (7, 8, D-F07, PC-D-F07 and TC-D-F07) were diluted to 400 μM with PBS, pH 7.4, or to 800 μM with RMPI plus 10% FBS culture media (experiments with TC-D-F07 were performed using RPMI without FBS). After incubation at 37° C., aliquots at various time points were injected onto an analytical HPLC instrument and the peaks integrated (UV monitored at 220 nm). Intact compound relative to t=0 was plotted as a function of time."}}, "note": "“Also recorded” adds a separate entry of the source.", "data": [{"smiles": "COc1cc2c3c(c(=O)oc2c(C2OCCCO2)c1B1OC(C)(C)C(C)(C)O1)CN(C)CC3", "note": "[BC-D-F07b, 7-(1,3-dioxan-2-yl)-9-methoxy-3-methyl-8-(4,4,5,5-tetramethyl-1,3,2-dioxaborolan-2-yl)-3,4-dihydro-1H-chromeno[3,4-c]pyridin-5(2H)-one]", "values": [{"measurement": "hydrolysis of 1,3-dioxane acetal by fluorescence decay", "setting": "[1]; aqueous solution, 0 to 48 h, versus D-F07", "value": "stabilized the 1,3-dioxane acetal protecting group"}]}, {"smiles": "CN1CCc2c(c(=O)oc3c(C=O)c(O)ccc23)C1", "note": "[Compound 3]", "values": [{"measurement": "inhibition of XBP-1s expression, short term", "setting": "[2]", "value": "began to lose its inhibitory effect within 4 h"}, {"measurement": "inhibition of XBP-1s expression", "setting": "[2]; 10 μM for 0, 3, 6, 12 or 24 h", "value": "rapidly inhibited the expression of XBP-1s; also recorded: much better long-term inhibitory activities than 1"}, {"measurement": "suppression of XBP-1s expression, long term", "setting": "[2]", "value": "recovered significantly in cells treated for 2 days"}, {"measurement": "overall comparison of inhibition of IRE-1 / XBP-1s expression in whole cells", "setting": "[2]; summary statement", "value": "most efficient aldehyde compounds in inhibiting IRE-1 in intact cells"}]}, {"smiles": "CC1(C)COC(c2c(O)ccc3c4c(c(=O)oc23)CNCC4)OC1", "note": "[Compound 5, 7-(5,5-dimethyl-1,3-dioxan-2-yl)-8-hydroxy-3,4-dihydro-1H-chromeno[3,4-c]pyridin-5(2H)-one]", "values": [{"measurement": "fluorescence intensity remaining (decomposition)", "setting": "[1]; PBS with 1% DMSO, 48 h, from 100%", "value": "approximately 60%"}]}, {"smiles": "CN1CCc2c(c(=O)oc3c(C4OCCCO4)c(O)ccc23)C1", "note": "[Compound 7, 7-(1,3-dioxan-2-yl)-8-hydroxy-3-methyl-1,2,3,4-tetrahydro-5H-chromeno[3,4-c]pyridin-5-one]", "values": [{"measurement": "growth inhibition / cytotoxicity (XTT)", "setting": "[3]; 20 μM for a course of 3 days", "value": "more potent than their respective aldehyde counterparts"}, {"measurement": "suppression of XBP-1s expression, long term", "setting": "[2]", "value": "continuously suppressed even after 3-day treatment; also recorded: more effective than 8 in suppressing the expression of XBP-1s for a longer term"}, {"measurement": "concentration that effectively blocks XBP-1s expression", "setting": "[2]; 24 h", "value": 10, "unit": "µM"}]}, {"smiles": "COc1cc2c3c(c(=O)oc2c(/C=N/NC(C)=O)c1O)CN(C)CC3", "note": "[Compound 10, (E)-N′-((8-hydroxy-9-methoxy-3-methyl-5-oxo-1,3,4,5-tetrahydro-2H-chromeno[3,4-c]pyridin-7-yl)methylene)acetohydrazide]", "values": [{"measurement": "growth suppression (XTT)", "setting": "[4]", "value": "initially more potent than 7 and 8 in suppressing WaC3 cell growth; also recorded: incapable of continuously inhibiting the growth of WaC3 cells"}, {"measurement": "inhibition of XBP-1s expression, short term", "setting": "[2]", "value": "suppressed the expression of XBP-1s more rapidly than 8"}, {"measurement": "suppression of XBP-1s expression, long term", "setting": "[2]", "value": "exhibited a long-term inhibitory effect; also recorded: slightly recovered in cells treated with 10 for 3 days"}]}, {"smiles": "N[C@@H](CSc1ccc([N+](=O)[O-])cc1[N+](=O)[O-])C(=O)O", "note": "[Compound 12, (S-2,4-Dinitrophenyl)cysteine]", "values": [{"measurement": "expression of XBP-1s (ER stress induction)", "setting": "[2]; 10 μM, 0 to 24 h", "value": "time-dependent increased expression of XBP-1s"}, {"measurement": "cytotoxicity / growth inhibition (XTT)", "setting": "[5]", "value": "not cytotoxic to MEC2 cells"}]}, {"smiles": "COc1cc2c3c(c(=O)oc2c(C2OCCCO2)c1OC(C)c1ccc(C(=O)OCC[Si](C)(C)C)cc1[N+](=O)[O-])CN(C)CC3", "note": "[PC-D-F07, 2-(trimethylsilyl)ethyl 4-(1-((7-(1,3-dioxan-2-yl)-9-methoxy-3-methyl-5-oxo-1,3,4,5-tetrahydro-2H-chromeno[3,4-c]pyridin-8-yl)oxy)ethyl)-3-nitrobenzoate]", "values": [{"measurement": "suppression of XBP-1s after removal of compound from media", "setting": "[2]; 10 μM 4 h, washed, UV 10 min, 8 h culture", "value": "suppression of XBP-1s expression"}, {"measurement": "stability (HPLC)", "setting": "[6]; PBS, 48 h", "value": "completely stable"}, {"measurement": "stability (HPLC)", "setting": "[6]; RPMI media, 96 h", "value": "completely stable"}]}, {"smiles": "COc1cc2c3c(c(=O)oc2c(C2OCCCO2)c1OS(=O)(=O)c1ccc([N+](=O)[O-])cc1[N+](=O)[O-])CN(C)CC3", "note": "[TC-D-F07, 7-(1,3-dioxan-2-yl)-9-methoxy-3-methyl-5-oxo-1,3,4,5-tetrahydro-2H-chromeno[3,4-c]pyridin-8-yl 2,4-dinitrobenzenesulfonate]", "values": [{"measurement": "cytotoxicity (XTT)", "setting": "[3]; 0, 2.5, 5, 10 or 20 μM, 24 h", "value": "more cytotoxic than D-F07"}, {"measurement": "suppression of XBP-1s expression", "setting": "[2]; 2.5 μM, 3 h", "value": "significantly suppress the expression of XBP-1s"}, {"measurement": "levels of XBP-1s, time course", "setting": "[2]; 2.5 μM, 12 h", "value": "the levels of XBP-1s began to recover"}, {"measurement": "levels of XBP-1s, time course", "setting": "[2]; 10 μM, 0 to 12 h", "value": "initially increased after 3-h treatment and subsequently decreased in response to continuous 12-h treatment"}, {"measurement": "levels of XBP-1s", "setting": "[2]; 10 and 20 μM, 3 h", "value": "levels of XBP-1s increased"}, {"measurement": "cytotoxicity / growth inhibition (XTT)", "setting": "[5]", "value": "potently inhibited the growth of these cells"}, {"measurement": "intact compound", "setting": "[6]; 4-h incubation in both PBS and RPMI media", "value": 90, "unit": "%"}, {"measurement": "decomposition rate (HPLC) versus D-F07", "setting": "[6]; PBS", "value": "slower decomposition rate"}]}]}
